Consider 1 compound from patent US10683273B2, “Compounds as DNA probes, methods and applications thereof” (JAWAHARLAL NEHRU CENTRE FOR ADVANCED SCIENTIFIC RESEARCH, priority 2015, dated 2020).

In data set [1] the test system is (A-T)20. The data set is described as follows: Binding constant from fluorescence titration. As to the method: (§1) To determine the binding stoichiometry of QCy-DT with Drew-AT, continuous variation method is employed, varying the ligand concentrations to generate the Job plot by fixing the total concentration of [QCy-DT+Drew-AT] at 2 μM. […] The binding constants of [QCy-DT+DNA] complexes are calculated from the fluorescence titration experiments using non-linear (single-binding mode) curve fitting analysis. […] Next, the fluorescence quantum yield of QCy-DT is estimated in the presence of AT- and GC-rich DNA duplexes (Table 3) as follows: […]

In data set [2] the test system is Drew-AT. The data set is described as follows: Binding constant from fluorescence titration. To be noted: non-linear single-binding mode curve fitting. The method, then: as §1
The test system of data set [3] is (D1)mix. The data set is described as follows: Binding constant from fluorescence titration. The conditions noted are these: non-linear single-binding mode curve fitting. As to the method: as §1
Another data set deals with MCF-7 cells. As to the kind of experiment: Cell viability assay (MTT). The format is cell-based. The conditions noted are these: MCF-7, up to 8 μM, about 72 hours. The method, then:
MCF-7 cells (4×10^3 cells/well) are seeded in 96-well plate (flat bottom) and cultured for 12 hours. Following this, cells are treated with […] of probe QCy-DT respectively for about 72 hours and further incubated in a humidified CO2 incubator at about 37° C. 20 μL of MTT (5 mg/mL in PBS) solution is added to each well and incubated for about 4 hours at about 37° C. in the CO2 incubator. DMSO (200 μL) is then added to each well. After about 1 hour, absorbance is taken in ELISA microplate reader at 570 nm wavelength.
Following formula is applied for the calculation of percentage of cell viability (CV): CV=(absorbance of the experimental samples/absorbance of the control sample)×100
The data is normalized with control and plotted with mean and standard error.

The test system of the next data set is DM3 (5′-AAAA-3′). As to the kind of experiment: Sequence-specific fluorescence enhancement, variable (A/T)4 core. The format is binding. To be noted: QCy-DT 2 μM, DM3 4 μM. The method, then: (§2) All the chemicals, reagents, single-stranded oligos (dA20, dT20, dG20, dC20), self-complementary oligos {d(ATAT)5, (D1)mix, Drew-AT, Calf-Thymus DNA (CT-DNA), (DM1, DM2, DM3, DM4, DM5, DM6 and DM7)}, RNA, were purchased from Sigma-Aldrich. ^1H and ^13C NMR spectra were recorded on a Bruker AV-400 MHz spectrometer with chemical shifts reported as parts per million (ppm) (in DMSO-d6, tetramethylsilane as an internal standard) at 20° C. UV-vis absorption and emission spectra were measured in quartz cuvettes of 1 cm path length. High resolution mass spectra (HRMS) were obtained on Agilent Technologies 6538 UHD Accurate-Mass Q-TOF LC/MS spectrometer. All biophysical studies (UV-vis, fluorescence and Cirular dichroism) are carried out at the concentration 0-5 μM of probe, volume=500 μL, temperature=25° C. and time of incubation=2 minutes. HeLa cells and MCF7 cells used in the biological studies are obtained from “Molecular reproduction, development and genetics lab, Indian institute of science, Bangalore, India”
(§3) Stock solutions of QCy-DT are prepared in double-distilled (dd) water in the order of 10^−3 M and stored at about −10° C. DNA stock solutions are prepared by dissolving oligo samples in double-distilled (dd) water in the order of 10^−4 M. Solutions of DNA duplexes are prepared in Tris-HCl (100 mM, pH=7.4) buffer solution by mixing complementary DNA strands in equimolar concentration. This solution is then subjected to annealing by heating up to about 85° C. for about 15 minutes, subsequently cooled to room temperature for about 7 hours and stored in the refrigerator (about 4° C.) for about 4 hours.
(§4) The UV-vis absorption and emission spectra are recorded on Agilent Technologies Cary series UV-vis-NIR absorbance and Cary eclipse fluorescence spectrophotometers, respectively. Thermal denaturation (UV-melting) studies are carried out on Cary 5000 UV-vis-NIR spectrophotometer equipped with Cary temperature controller in the range of 10° C. to 90° C. with a ramp rate of 1° C./min. The variable temperature/wavelength mode is used. Absorption is monitored at 260 nm with regular 5° C. intervals. Melting temperatures (Tm) of DNA samples are calculated from the first derivatives of the absorption vs. temperature curves (thermal denaturation or melting curves) obtained by monitoring at 260 nm.
(§5) Almost about ˜4-folds difference in fluorescence enhancement of QCy-DT in the presence of (A-T)20 compared to self-complementary, alternative AT-base pair containing d(ATAT)5 duplex is observed, although both contain total 20 AT base pairs (FIG. 3 and FIG. 12a). […] There are no NIR-fluorescence probes that sequence-specifically recognize the minor groove of AT-rich DNA. […] Further, QCy-DT detects all AT-rich sequences by showing varied fluorescence/sensitivity. […]

A further data set has as its system DM2 (5′-ATTA-3′). The data set is described as above. In kind it is binding. To be noted: QCy-DT 2 μM, DM2 4 μM. The method, then:
as §2, §3, §4, §5

A further data set deals with DM1 (5′-ATAT-3′). The description is as above. The conditions noted are these: QCy-DT 2 μM, DM1 4 μM. The format is binding. As to the method: as §2, §3, §4, §5
Data set [4] has as its system (A-T)20. The data set is described as follows: Fluorescence quantum yield in presence of DNA. The conditions noted are these: in presence of (A-T)20. In kind it is binding. As to the method:
(§6) Cresyl violet perchlorate in ethanol (ϕ=0.54) is used as the standard for the fluorescence quantum yield calculation using the absorption of the test sample. The emission spectral area is obtained in the 550-800 nm regions. Dilute solutions (10^−6 M) are used to minimize reabsorption effects of the dyes. Quantum yields are determined using the following equation, ϕs=ϕr(Fs/Fr)×(Ar/As)×(ns^2/nr^2)
(§7) Where, ϕr and ϕs are the quantum yield of reference and sample respectively, Fr and Fs are the integrated intensities (areas) of standard and sample spectra, nr and ns are the refractive indices of the reference and sample solution, Ar and As are the absorbance intensities of reference and sample respectively.

Data set [5] relates to Drew-AT. As to the kind of experiment: Fluorescence quantum yield in presence of DNA. In kind it is binding. The method, then: as §6, §7
Data set [6] deals with (D1)mix. As to the kind of experiment: Fluorescence quantum yield in presence of DNA. In kind it is binding. As to the method:
as §6, §7

The subject of a further data set is d(ATAT)5. As to the kind of experiment: Fluorescence quantum yield in presence of DNA. In kind it is binding. The conditions noted are these: in presence of D(ATAT)5. As to the method: as §6, §7

Where only a bound is given, the exact number is not on record here.

The term cell viability denotes a per cent measure of how many cells are alive, often set against a control. A lower cell viability goes with more harm to the cells. In the case of `C[n+]1c(/C=C/c2ccc(O)c(/C=C/c3sc4ccccc4[n+]3C)c2)sc2ccccc21` [QCy-DT, quinone cyanine-dithiazole], the results for the “binding affinity Ka” value with (A-T)20 [1] (non-linear single-binding mode curve fitting), in the data set with Drew-AT [2] and in the data set on (D1)mix [3] were 2.9e+06 M⁻¹, 1.5e+06 M⁻¹ and 430000 M⁻¹, respectively. Besides, in the data set on (A-T)20 [1] (ratio of Ka), the “binding affinity for (A-T)20 higher than for Drew-AT” value is recorded as 2 fold. In the data set with MCF-7 cells, the cell viability is listed as over 76%. Moreover, the fluorescence enhancement was about 40 fold in the data set with DM3 (5′-AAAA-3′), about 15 fold in the data set on DM2 (5′-ATTA-3′) and about 8 fold in the data set with DM1 (5′-ATAT-3′). Also, the “Quantum Yield (ΦF)” value is on record as about 0.32 in the data set with (A-T)20 [4], about 0.25 in the data set on Drew-AT [5], 0.08 with (D1)mix [6] and 0.08 in the data set on d(ATAT)5.
